The record followed here is patent publication US7915293B2, “Ubiquitin ligase inhibitors” (Rigel Pharmaceuticals, Inc., priority 2003, dated 2011).

E3 (His-APC11/APC2-"APC"), sequence (Q9NYG5 whole entry): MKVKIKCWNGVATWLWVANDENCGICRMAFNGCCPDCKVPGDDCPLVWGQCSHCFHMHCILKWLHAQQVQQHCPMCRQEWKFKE
E3 (His-APC11/APC2-"APC"), sequence (Q9UJX6 whole entry): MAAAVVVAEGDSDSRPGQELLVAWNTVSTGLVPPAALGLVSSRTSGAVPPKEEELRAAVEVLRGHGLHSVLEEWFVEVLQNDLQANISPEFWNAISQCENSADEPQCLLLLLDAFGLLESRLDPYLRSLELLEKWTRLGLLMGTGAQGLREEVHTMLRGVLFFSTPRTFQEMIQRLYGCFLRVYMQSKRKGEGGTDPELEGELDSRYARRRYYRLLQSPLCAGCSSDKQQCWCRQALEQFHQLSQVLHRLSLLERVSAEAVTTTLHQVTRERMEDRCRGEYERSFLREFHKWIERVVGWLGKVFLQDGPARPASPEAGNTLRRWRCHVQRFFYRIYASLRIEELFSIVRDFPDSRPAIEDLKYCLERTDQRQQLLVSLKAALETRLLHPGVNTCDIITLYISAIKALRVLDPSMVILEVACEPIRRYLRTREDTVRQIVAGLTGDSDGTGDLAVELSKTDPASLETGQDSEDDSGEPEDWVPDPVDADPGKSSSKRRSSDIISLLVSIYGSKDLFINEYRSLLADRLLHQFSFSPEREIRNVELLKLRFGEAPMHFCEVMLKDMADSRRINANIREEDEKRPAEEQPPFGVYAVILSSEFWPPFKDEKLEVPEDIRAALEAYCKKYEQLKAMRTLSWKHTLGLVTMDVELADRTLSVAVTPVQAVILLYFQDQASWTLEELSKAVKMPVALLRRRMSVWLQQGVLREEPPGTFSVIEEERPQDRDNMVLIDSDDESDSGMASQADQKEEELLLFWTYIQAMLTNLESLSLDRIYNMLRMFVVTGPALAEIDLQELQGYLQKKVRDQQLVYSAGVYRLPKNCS

The target in one test is E3 (His-APC11/APC2-"APC") (Homo sapiens, UniProt Q9NYG5+Q9UJX6). As to the kind of experiment: Plate-based E3 ligase assay (APC FLAG), auto-ubiquitination. Type of test: biochemical. Further details: key: “+” indicates that the compound exibits inhibitory activity; “−” indicates that low or no inhibitory activity was observed. As to conditions: 2 concentrations tested. The method, then:
E3 (His-APC11/APC2-“APC”) auto-ubiquitination was measured as described in U.S. patent application Ser. No. 09/826,312 (Publication No. US-2002-0042083-A1), which is incorporated herein in its entirety. Details of the protocol are described below. Activity in the presence of the compound was determined relative to a parallel control in which only DMSO was added. Values of the IC50 were typically determined using 6 or 8 different concentrations of the compound, although as few as 2 concentrations may be used to approximate the IC50 value.
Nickel-coated 96-well plates (Pierce 15242) were blocked for 1 hour with 100 μl of blocking buffer at room temperature. The plates were washed 4 times with 225 μl of 1×PBS and 80 μl of the reaction buffer were added that contained 100 ng/well of Flag-ubiquitin. To this, 10 μl of the test compound diluted in DMSO were added. After the test compound was added, 10 μl of E1 (human), E2 (Ubch5c), and APC in Protein Buffer was added to obtain a final concentration of 5 ng/well of E1, 20 ng/well of E2 and 100 ng/well of APC. The plate were shaken for 10 minutes and incubated at room temperature for 1 hour. After incubation, the plates were washed 4 times with 225 μl of 1×PBS and 100 μl/well of Antibody Mix were added to each well. The plates were incubate at room temperature for another hour after which they were washed 4 times with 225 μl of 1×PBS and 100 μl/well of Lumino substrate were added to each well. The luminescence was measured by using a BMG luminescence microplate reader.
To prepare the Blocking Buffer (1 liter; 1% Casein in 1×PBS), 10 grams of Casein (Hammersten Grade Casein from Gallard-Schlesinger Inc. #440203) were placed into 1 liter of 1×PBS, stirred on a hot plate and kept between 50-60° C. for an hour. The buffer was allowed to cool to room temperature and then filtered using a Buchner Funnel (Buchner filter funnel 83 mm 30310-109) and Whatman filter paper (Whatman Grade No. 1 Filter paper 28450-070). It was stored at 4° C. until used.
The reaction buffer consisted of 62.5 mM Tris pH 7.6 (Trizma Base—Sigma T-8524), 3 mM MgCl2 (Magnesium Chloride—Sigma M-2393), 1 mM DTT (Sigma D-9779), 2.5 mM ATP (Roche Boehringer Mann Corp. 635-316), 100 ng/well of Flag-ubiquitin, 0.1% BSA (Sigma A-7906), and 0.05% Tween-20 (Sigma P-7949).
The Protein Buffer consisted of 20 mM Tris pH 7.6, 10% glycerol (Sigma G-5516) and 1 mM DTT.
The antibody mix consisted of 0.25% BSA (Sigma A-7906) in 1×PBS, 1/50,000 anti-Flag (Sigma F-3165), 1/100,000 of anti-Mouse IgG-HRP (Jackson Immunoresearch #115-035-146).
The substrate mix consisted of SuperSignal Substrate from Pierce (catalog number 37070ZZ) and was prepared by mixing 100 ml of the peroxide solution, 100 ml of the enhancer solution and 100 ml of Milli-Q® water.
On to `O=S(=O)(Nc1ccc(F)c(Cl)c1)c1ccc(Oc2ccc(Cl)cc2)cc1` [Example 195, N-(3-chloro-4-fluorophenyl)-4-(4-chloro-phenoxy)benzenesulfonamide], for which the “APC Flag (2 pt)” value is “− (2 pt)”. The same measure, in the same setting: as for `Cc1c(Cl)cccc1NS(=O)(=O)c1ccc(Oc2ccc(F)cc2)cc1` [Example 188, N-(3-chloro-2-methylphenyl)-4-(4-fluoro-phenoxy)benzenesulfonamide], the entry is “− (2 pt)”. With `O=S(=O)(Nc1cccc(Br)c1)c1ccc(Oc2ccc(Cl)cc2)cc1` [Example 196, N-(3-bromophenyl)-4-(4-chlorophenoxy) benzenesulfonamide], the “APC Flag (2 pt)” value was “− (2 pt)”. Still for that read-out and setting: with `CN(c1cc(Cl)cc(Cl)c1)S(=O)(=O)c1cc(Cl)c(Oc2ccc([N+](=O)[O-])cc2Cl)c(Cl)c1` [Example 190, 3,5-dichloro-4-(2-chloro-4-nitrophenoxy)-N-(3,5-dichlorophenyl)-N-methylbenzene-sulfonamide] the entry was “− (2 pt)”. Same read-out and setting: with `Cc1c(Cl)cccc1NS(=O)(=O)c1ccc(Oc2ccc(Cl)cc2)cc1` [Example 194, N-(3-chloro-2-methylphenyl)-4-(4-chloro-phenoxy)benzenesulfonamide] the entry was “− (2 pt)”.

The same test, now with this note: 8 concentrations tested.
Regarding `O=[N+]([O-])c1ccc(F)c(NS(=O)(=O)c2ccc(Oc3ccc([N+](=O)[O-])cc3C(F)(F)F)c(Cl)c2)c1` [Example 260, 3-chloro-N-(2-fluoro-5-nitrophenyl)-4-[4-nitro-2-(trifluoromethyl)phenoxy]benzene-sulfonamide], the “APC Flag 8 pt” value is “+”.

On to `O=C(NCC1CC1)[C@@H]1CCCN1S(=O)(=O)c1cc(Cl)c(Oc2ccc([N+](=O)[O-])cc2Cl)c(Cl)c1` [Compound 139, N-(cyclopropylmethyl)-1-{[3,5-dichloro-4-(2-chloro-4-nitrophenoxy)phenyl]sulfonyl}prolinamide], for which the “APC Flag 8 pt” value is recorded as “−”. Consider `O=[N+]([O-])c1ccc(Oc2c(Cl)cc(S(=O)(=O)NCC3CCCO3)cc2Cl)c(Cl)c1` (centres unmarked) [Example 121, 3,5-dichloro-4-(2-chloro-4-nitrophenoxy)-N-(tetrahydrofuran-2-ylmethyl)benzene-sulfonamide], for which the “APC Flag 8 pt” value is reported as “−”. Take `O=[N+]([O-])c1ccc(Oc2c(Cl)cc(S(=O)(=O)Nc3cc(F)cc(F)c3)cc2Cl)c(Cl)c1` [Example 177, 3,5-dichloro-4-(2-chloro-4-nitrophenoxy)-N-(3,5-difluorophenyl)benzenesulfonamide]: the “APC Flag 8 pt” value is given as “+”. Same read-out and setting: with `O=C(Nc1cc(C(F)(F)F)ccc1Cl)N1CCC(Oc2ncccn2)CC1` [Example 309, N-(2-chloro-5-(trifluoromethyl)phenyl)-4-(pyrimidin-2-yloxy)piperidine-1-carboxamide] the entry was “−”; with `O=[N+]([O-])c1ccc(Oc2c(Cl)cc(S(=O)(=O)NCCN3CCOCC3)cc2Cl)c(Cl)c1` [Example 132, 3,5-dichloro-4-(2-chloro-4-nitrophenoxy)-N-(2-morpholin-4-ylethyl)benzenesulfonamide], “−”. `COc1ccc(CCNS(=O)(=O)c2cc(Cl)c(Oc3ccc([N+](=O)[O-])cc3Cl)c(Cl)c2)cc1` [Example 129, 3,5-dichloro-4-(2-chloro-4-nitrophenoxy)-N-[2-(4-methoxyphenyl)ethyl]benzene-sulfonamide]: the “APC Flag 8 pt” value was “+”. Take `CNS(=O)(=O)c1cc(Cl)c(Oc2ccc([N+](=O)[O-])cc2Cl)c(Cl)c1` [Example 135, 3,5-dichloro-4-(2-chloro-4-nitrophenoxy)-N-methylbenzenesulfonamide]: the “APC Flag 8 pt” value is given as “+”. As to `O=C(Nc1cc(Cl)ccc1Cl)N1CCC(Oc2ncccn2)CC1` [Compound 310, N-(2,5-dichlorophenyl)-4-(pyrimidin-2-yloxy)piperidine-1-carboxamide], the “APC Flag 8 pt” value is “−”.

In the case of `O=[N+]([O-])c1ccc(Oc2c(Cl)cc(S(=O)(=O)NCc3ccncc3)cc2Cl)c(Cl)c1` [Example 133, 3,5-dichloro-4-(2-chloro-4-nitrophenoxy)-N-(pyridin-4-ylmethyl)benzenesulfonamide], the “APC Flag 8 pt” value is on record as “−”. As for `O=[N+]([O-])c1ccc(Oc2c(Cl)cc(S(=O)(=O)N3CCCC3)cc2Cl)c(Cl)c1` [Example 22, 1-{[3,5-dichloro-4-(2-chloro-4-nitrophenoxy)phenyl]sulfonyl}pyrrolidine], the “APC Flag 8 pt” value was “−”. On the same count and under the same terms, as for `CN(c1cccc(Cl)c1)S(=O)(=O)c1cc(Cl)c(Oc2ccc([N+](=O)[O-])cc2Cl)c(Cl)c1` [Compound 153, 3,5-dichloro-4-(2-chloro-4-nitrophenoxy)-N-(3-chlorophenyl)-N-methylbenzenesulfonamide], the entry is “−”; as for `Cc1cccc(NS(=O)(=O)c2cc(Cl)c(Oc3ccc([N+](=O)[O-])cc3Cl)c(Cl)c2)c1` [Example 161, 3,5-dichloro-4-(2-chloro-4-nitrophenoxy)-N-(3-methylphenyl)benzenesulfonamide], “+”. On the same count and under the same terms, as for `O=[N+]([O-])c1ccc(Oc2c(Cl)cc(S(=O)(=O)Nc3cccc(Cl)c3Cl)cc2Cl)c(Cl)c1` [Example 178, 3,5-dichloro-4-(2-chloro-4-nitrophenoxy)-N-(2,3-dichlorophenyl)benzenesulfonamide], the entry is “+”; as for `O=[N+]([O-])c1ccc(Oc2c(Cl)cc(S(=O)(=O)Nc3ccc(Cl)cc3)cc2Cl)c(Cl)c1` [Example 176, 3,5-dichloro-4-(2-chloro-4-nitrophenoxy)-N-(4-chlorophenyl)benzenesulfonamide], “−”. Turning to `Cc1ccc(NS(=O)(=O)c2cc(Cl)c(Oc3ccc([N+](=O)[O-])cc3Cl)c(Cl)c2)cc1F` [Example 198, 3,5-dichloro-4-(2-chloro-4-nitrophenoxy)-N-(3-fluoro-4-methylphenyl)benzene-sulfonamide], the “APC Flag 8 pt” value was “+”. As for `O=[N+]([O-])c1ccc(Oc2c(Cl)cc(S(=O)(=O)Nc3cc(Cl)cnc3Cl)cc2Cl)c(Cl)c1` [Example 233, 3,5-dichloro-4-(2-chloro-4-nitrophenoxy)-N-(2,5-dichloropyridin-3-yl)benzene-sulfonamide], the “APC Flag 8 pt” value is “+”. Still for that read-out and setting: as for `O=C(Nc1cc(C(F)(F)F)ccc1Cl)N1CCC(Oc2ccccc2C(F)(F)F)CC1` [Example 307, N-(2-chloro-5-(trifluoromethyl)phenyl)-4-(2-(trifluoromethyl)phenoxy)piperidine-1-carboxamide], the entry is “−”.
